Measured values as given in paper PMC11334105, “Contribution of Noncovalent Recognition and Reactivity to the Optimization of Covalent Inhibitors: A Case Study on KRas^G12C” (ACS Chemical Biology, 2024).
Like-named read-outs stand apart in the source and are kept apart here.

What was measured:
[1] = molecular target: T1, KRAS^G12C (Homo sapiens, UniProt P01116, G12C); assay: MANT-GDP nucleotide exchange assay (SOS1, GppNHp); assay type: biochemical
Procedure: The reaction was stopped by adding MgCl2 to a final concentration of 10 mM, then incubated at 20 °C for 30 min. The unbound MANT-GDP was removed using the NAP-5 column equilibrated with nucleotide exchange buffer (40 mM HEPES-NaOH (pH 7.5), 50 mM NaCl, 10 mM MgCl2, 2 mM Dithiothreitol DTT).

[2] = tested on: H1792; assay: Cell proliferation assay (MTT), KRAS^G12C expressing cell; conditions: Homo sapiens, NCI-H1792, 72 h, read-out: IC50 anti-proliferative activity
[3] = tested on: MiaPaca2; assay: as above; conditions: Homo sapiens, MIA PaCa-2, 72 h, read-out: IC50 anti-proliferative activity
[4] = tested on: H358; assay: as above; conditions: Homo sapiens, NCI-H358, 72 h, read-out: IC50 anti-proliferative activity
[5] = molecular target: KRAS^G12C; conditions: published value ref 46; cited from earlier work
[6] = molecular target: KRAS^wt (Homo sapiens, UniProt P01116); assay: MANT-GDP nucleotide exchange assay against wild type
Procedure: In the experiments, we used the GTP analogue, GppNHp, which cannot be hydrolyzed by Ras.
After the incubation, the MANT-GDP KRAS-inhibitor mixtures were loaded into a black 384-well microplate in the presence or absence of the different inhibitor molecules in various concentrations. The nucleotide exchange reaction was initiated by adding a 100-fold molar excess of GppNHp (catalog no.: G0635, Sigma-Aldrich), a nonhydrolyzable GTP analog, and the SOS1 exchange domain (catalog no.: GE02, Cytoskeleton, Inc.) protein in 0.2 μM final concentration. The change in fluorescence intensity was measured every 30 s in RT for 60 min on an EnvSpire plate reader (PerkinElmer, Inc.). The measured values were fitted to a single exponential function by using GraphPad Prism 10 software. The derived rates were normalized to the RAS-SOS1 minus RAS-only samples from which the IC50 values were calculated from three independent experiments with each inhibitor using GraphPad Prism 10 software.

[7] = HPLC-based GSH reactivity and stability assay; assay type: physicochemical; conditions: for half-life at 250 μM: 5 mM glutathione, PBS pH 7.4, corrected for aqueous degradation, mean ± SD, n = 2, read-out: t1/2 GSH (converted); for experimental ΔG^#(GSH): free energy barrier calculated from t1/2 and GSH^– concentration
Procedure: The cysteine reactivity of the compounds was first assessed in a surrogate kinetic assay.[25],[26] Glutathione (GSH), a cysteine surrogate, was used in a large excess to ensure quasi-first-order reaction kinetics.
The sample was eluted with gradient elution using eluent A (0.1% FA in H2O) and eluent B (0.1% FA in ACN). The column temperature was always kept at 30 °C; the injection volume was 20 μL, the flow rate was set to 1.5 mL/min, and a Reprospher C18 (5 μm, 100 mm × 3 mm) column was used along with the following gradient. […] The AUC (area under the curve) values were determined via the integration of HPLC chromatograms and then corrected with the internal standard. The fragments’ AUC values were subjected to ordinary least-squares (OLS) linear regression, and to compute the important parameters (kinetic rate constant and half-life time), an Excel sheet was applied. The data are expressed as means of duplicate determinations. The kinetic rate constant for the degradation and corrected GSH reactivity were calculated as follows. The reaction half-life for pseudo-first-order reactions (t1/2) is ln 2/k, where k is the reaction rate. In the case of competing reactions (reaction with GSH and degradation), the apparent reaction rate is kapp = kdeg + kGSH. When half-lives are measured experimentally, t1/2(app) = ln 2/(kapp) = ln 2/(kdeg + kGSH). In our case, the corrected kdeg and kapp (regarding blank and GSH-containing samples, respectively) can be calculated by the linear regression of the measured kinetic data points. The corrected kGSH is calculated as kapp – kdeg, and finally, the half-life is determined using the equation t1/2 = ln 2/k.

[8] = molecular target: T1, KRAS^G12C; assay: LC-MS occupancy measurements (KI and kinact determination); assay type: binding; conditions: for kobs: 5 μM KRASG12C, duplicated experiments; for experimental ΔG^# (KRAS^G12C): free energy barrier calculated from kinact; for experimental ΔGbind: obtained as RT ln(KI) with KI in M units
[9] = KRAS^G12C, 60 min incubation with inhibitor, mean ± SD, n = 3, read-out: IC50 inhibition of nucleotide exchange
[10] = PBS buffer with 5 mM glutathione (GSH)
[11] = fit of kobs vs concentration, MS occupancy, mean ± SD, n = 2
[12] = fit of kobs vs concentration, MS occupancy, mean ± SD, n = 2, read-out: KI

Row | Structure (SMILES) | IC50 [1, 9] | IC50 [2] | IC50 [3] | IC50 [4] | kinact/KI [5] | IC50 [6] | half-life at 250 μM ([7]; buffer) | experimental ΔG^#(GSH) [7] | IC50 [1] | Ki [8] | kobs ([8]; 20 μM inhibitor) | kobs ([8]; 40 μM inhibitor) | kobs ([8]; 80 μM inhibitor) | kobs ([8]; 160 μM inhibitor) | experimental ΔG^# (KRAS^G12C) [8] | experimental ΔGbind [8] | half-life at 250 μM [7, 10] | kinact/KI [8] | kinact [8, 11] | Ki [8, 12]
1 | O=C(CCl)N1CCN(c2ncnc3cc(-c4c(O)cccc4F)c(Cl)cc23)CC1 [2a, 2-Chloro-1-{4-[6-chloro-7-(2-fluoro-6-hydroxyphenyl)-quinazolin-4-il]piperazine-1-yl}ethane-1-one] | 0.305 ± 0.04 µM | 2.9 µM | 3.1 µM | 2.7 µM |  |  |  |  |  |  |  |  |  |  |  |  |  |  |  | 
2 | C=CC(=O)N1CCN(c2nc(OC[C@@H]3CCCN3C)nc3c(F)c(-c4nc(N)cc(C)c4C(F)(F)F)c(Cl)cc23)[C@@H](C)C1 [Divarasib] |  |  |  |  | 710,000 M^–1 s^–1 |  |  |  |  |  |  |  |  |  |  |  |  |  |  | 
3 | CN1CCCC1COc1nc(N2CCN(C(=O)CCl)CC2)c2cc(Cl)c(-c3c(O)cccc3F)cc2n1 (centres unmarked) [2b, 2-Chloro-1-(4-(6-chloro-7-(2-fluoro-6-hydroxyphenyl)-2-((1-methylpyrrolidin-2-yl)methoxy)quinazolin-4-yl)piperazin-1-yl)ethan-1-one] | 0.642 ± 0.115 µM | 1.8 µM | 3.2 µM | 1.8 µM |  |  |  |  |  |  |  |  |  |  |  |  |  |  |  | 
4 | C=CC(=O)N1CCN(c2nc(OCC3CCCN3C)nc3cc(-c4c(O)cccc4F)c(Cl)cc23)CC1 (centres unmarked) [1b, 1-(4-(6-Chloro-7-(2-fluoro-6-hydroxyphenyl)-2-((1-methylpyrrolidin-2-yl)methoxy)quinazolin-4-yl)piperazin-1-yl)prop-2-en-1-one] | 0.52 ± 0.108 µM | 30.1 µM | 0.53 µM | 1.1 µM |  | 177 µM |  |  |  |  |  |  |  |  |  |  |  |  |  | 
5 | C=CC(=O)N1CCN(c2ncnc3cc(-c4c(O)cccc4F)c(Cl)cc23)CC1 [1a, 1-(4-(6-Chloro-7-(2-fluoro-6-hydroxyphenyl)quinazolin-4-yl)piperazin-1-yl)prop-2-en-1-one] | 0.827 ± 0.137 µM | 16.2 µM | 1.8 µM | 2.3 µM |  |  |  |  |  |  |  |  |  |  |  |  |  |  |  | 
6 | O=C(C1CN1)N1CCN(c2ncnc3cc(-c4c(O)cccc4F)c(Cl)cc23)CC1 (centres unmarked) [4a, Aziridin-2-yl(4-(6-chloro-7-(2-fluoro-6-hydroxyphenyl)quinazolin-4-yl)piperazin-1-yl)methanone] |  | 22.6 µM | 19.8 µM | 27.1 µM |  |  | > 72 h | >20.1 kcal/mol | 198 ± 39 µM | 22.2 ± 1.8 µM | 0.00004 ± 0.00001 s⁻¹ | 0.0006 ± 0.00001 s⁻¹ | 0.00007 ± 0.00001 s⁻¹ | 0.00008 ± 0.00001 s⁻¹ | 22.9 ± 0.0 kcal/mol | –6.3 ± 0.1 kcal/mol |  |  |  | 
7 | CN1CCCC1COc1nc(N2CCN(C(=O)C3CN3)CC2)c2cc(Cl)c(-c3c(O)cccc3F)cc2n1 (centres unmarked) [4b, Aziridin-2-yl(4-(6-chloro-7-(2-fluoro-6-hydroxyphenyl)-2-((1-methylpyrrolidin-2-yl)methoxy)quinazolin-4-yl)piperazin-1-yl)methanone] |  | 30.8 µM | 48.2 µM | 90 µM |  |  | > 72 h | >20.1 kcal/mol | 84.4 ± 18.9 µM | 112 ± 30.1 µM | 0.00029 ± 0.00018 s⁻¹ | 0.00044 ± 0.00004 s⁻¹ | 0.00072 ± 0.00018 s⁻¹ | 0.00104 ± 0.00002 s⁻¹ | 21.2 ± 0.1 kcal/mol | –5.4 ± 0.2 kcal/mol |  |  |  | 
8 | O=C(N1CCN(c2ncnc3cc(-c4c(O)cccc4F)c(Cl)cc23)CC1)n1ccnc1 [3a, (4-(6-Chloro-7-(2-fluoro-6-hydroxyphenyl)quinazolin-4-yl)piperazin-1-yl)(1H-imidazol-1-yl)methanone] | 67.4 ± 11.3 µM | 17.9 µM | 20.4 µM | 27.4 µM |  |  |  | 19.6 ± 0.2 kcal/mol |  |  | 0.00014 ± 0.00003 s⁻¹ | 0.00021 ± 0.00005 s⁻¹ | 0.00033 ± 0.00004 s⁻¹ | 0.00033 ± 0.00006 s⁻¹ | 22.0 ± 0.2 kcal/mol | –6.0 ± 0.4 kcal/mol | 35 ± 11 h | 9.8 ± 4.7 M⁻¹ s⁻¹ | 0.4 ± 0.1 0.001 s^–1 | 40.9 ± 16.7 µM
9 | CN1CCCC1COc1nc(N2CCN(C(=O)n3ccnc3)CC2)c2cc(Cl)c(-c3c(O)cccc3F)cc2n1 (centres unmarked) [3b, (4-(6-Chloro-7-(2-fluoro-6-hydroxyphenyl)-2-((1-methylpyrrolidin-2-yl)methoxy)quinazolin-4-yl)piperazin-1-yl)(1H-imidazol-1-yl)methanone] | 243 ± 52.4 µM | 17.7 µM | 8.8 µM | 9.9 µM |  |  |  | 19.7 ± 0.3 kcal/mol |  |  | 0.00005 ± 0.00001 s⁻¹ | 0.0006 ± 0.00001 s⁻¹ | 0.00009 ± 0.00001 s⁻¹ | 0.00010 ± 0.00001 s⁻¹ | 22.7 ± 0.0 kcal/mol | –6.0 ± 0.1 kcal/mol | 40 ± 18 h | 3.1 ± 0.7 M⁻¹ s⁻¹ | 0.13 ± 0.01 0.001 s^–1 | 42.2 ± 9.9 µM
10 | C=CC(=O)N1CCN(c2ncnc3c(F)c(-c4c(O)cccc4F)c(Cl)cc23)CC1 [ARS-1620, reference compound] |  | 10.2 µM | 0.14 µM | 0.31 µM |  |  |  |  |  |  |  |  |  |  |  |  |  |  |  | 
